{"source": "ChEMBL document CHEMBL2216752", "about": "“Carnitine palmitoyltransferase (CPT) modulators: a medicinal chemistry perspective on 35 years of research” (J Med Chem, 2011)", "key": {"[1]": {"target": "T1, Carnitine O-palmitoyltransferase 1, liver isoform (Homo sapiens, UniProt P50416)", "T1 sequence (P50416 whole entry)": "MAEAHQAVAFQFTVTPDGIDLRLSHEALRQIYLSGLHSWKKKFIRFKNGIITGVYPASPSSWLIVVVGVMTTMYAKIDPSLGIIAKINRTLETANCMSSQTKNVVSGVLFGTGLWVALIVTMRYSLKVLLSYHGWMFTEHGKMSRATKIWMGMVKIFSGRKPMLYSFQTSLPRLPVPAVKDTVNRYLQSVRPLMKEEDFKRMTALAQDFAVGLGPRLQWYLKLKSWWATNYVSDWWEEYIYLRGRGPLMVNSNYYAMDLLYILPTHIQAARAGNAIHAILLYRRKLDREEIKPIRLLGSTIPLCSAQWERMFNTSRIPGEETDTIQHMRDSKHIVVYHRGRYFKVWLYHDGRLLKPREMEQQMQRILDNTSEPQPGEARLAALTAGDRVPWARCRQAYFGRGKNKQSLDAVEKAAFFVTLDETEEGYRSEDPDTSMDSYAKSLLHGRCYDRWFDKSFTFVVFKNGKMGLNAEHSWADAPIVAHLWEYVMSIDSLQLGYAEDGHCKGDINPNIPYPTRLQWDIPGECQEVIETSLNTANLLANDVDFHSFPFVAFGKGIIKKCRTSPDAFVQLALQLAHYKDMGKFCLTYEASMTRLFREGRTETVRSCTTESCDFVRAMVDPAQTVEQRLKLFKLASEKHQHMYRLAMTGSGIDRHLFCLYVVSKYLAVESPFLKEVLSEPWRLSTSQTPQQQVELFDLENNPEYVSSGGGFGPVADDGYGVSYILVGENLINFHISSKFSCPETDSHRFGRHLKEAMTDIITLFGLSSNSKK", "test": "Inhibition of human CPT1A"}, "[2]": {"target": "T2, Carnitine O-palmitoyltransferase 1, muscle isoform (Homo sapiens, UniProt Q92523)", "T2 sequence (Q92523 whole entry)": "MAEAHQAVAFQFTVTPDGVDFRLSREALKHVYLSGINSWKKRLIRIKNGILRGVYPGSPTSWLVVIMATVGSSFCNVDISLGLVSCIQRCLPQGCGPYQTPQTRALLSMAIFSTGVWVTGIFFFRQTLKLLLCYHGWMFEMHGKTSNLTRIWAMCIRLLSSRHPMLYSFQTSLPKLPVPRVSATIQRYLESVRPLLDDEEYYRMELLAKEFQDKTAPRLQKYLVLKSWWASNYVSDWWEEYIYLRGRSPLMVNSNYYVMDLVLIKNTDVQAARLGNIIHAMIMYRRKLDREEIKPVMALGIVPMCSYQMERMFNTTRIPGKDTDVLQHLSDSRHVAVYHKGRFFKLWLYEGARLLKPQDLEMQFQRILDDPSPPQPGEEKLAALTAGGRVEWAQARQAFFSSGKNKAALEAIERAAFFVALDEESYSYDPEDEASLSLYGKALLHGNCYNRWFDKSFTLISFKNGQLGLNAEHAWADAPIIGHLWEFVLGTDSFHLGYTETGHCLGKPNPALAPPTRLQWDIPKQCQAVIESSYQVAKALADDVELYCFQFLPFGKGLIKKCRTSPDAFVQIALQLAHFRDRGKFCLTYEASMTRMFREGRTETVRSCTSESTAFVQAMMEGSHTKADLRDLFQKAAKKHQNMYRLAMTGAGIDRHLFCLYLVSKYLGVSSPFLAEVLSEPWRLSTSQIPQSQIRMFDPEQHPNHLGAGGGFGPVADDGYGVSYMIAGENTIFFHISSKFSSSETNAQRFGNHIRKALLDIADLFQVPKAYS", "test": "Inhibition of human CPT1B"}, "[3]": {"target": "Carnitine O-palmitoyltransferase 1, muscle isoform (Rattus norvegicus) (UniProt Q63704)", "sequence (Q63704 whole entry, looked up, canonical isoform)": "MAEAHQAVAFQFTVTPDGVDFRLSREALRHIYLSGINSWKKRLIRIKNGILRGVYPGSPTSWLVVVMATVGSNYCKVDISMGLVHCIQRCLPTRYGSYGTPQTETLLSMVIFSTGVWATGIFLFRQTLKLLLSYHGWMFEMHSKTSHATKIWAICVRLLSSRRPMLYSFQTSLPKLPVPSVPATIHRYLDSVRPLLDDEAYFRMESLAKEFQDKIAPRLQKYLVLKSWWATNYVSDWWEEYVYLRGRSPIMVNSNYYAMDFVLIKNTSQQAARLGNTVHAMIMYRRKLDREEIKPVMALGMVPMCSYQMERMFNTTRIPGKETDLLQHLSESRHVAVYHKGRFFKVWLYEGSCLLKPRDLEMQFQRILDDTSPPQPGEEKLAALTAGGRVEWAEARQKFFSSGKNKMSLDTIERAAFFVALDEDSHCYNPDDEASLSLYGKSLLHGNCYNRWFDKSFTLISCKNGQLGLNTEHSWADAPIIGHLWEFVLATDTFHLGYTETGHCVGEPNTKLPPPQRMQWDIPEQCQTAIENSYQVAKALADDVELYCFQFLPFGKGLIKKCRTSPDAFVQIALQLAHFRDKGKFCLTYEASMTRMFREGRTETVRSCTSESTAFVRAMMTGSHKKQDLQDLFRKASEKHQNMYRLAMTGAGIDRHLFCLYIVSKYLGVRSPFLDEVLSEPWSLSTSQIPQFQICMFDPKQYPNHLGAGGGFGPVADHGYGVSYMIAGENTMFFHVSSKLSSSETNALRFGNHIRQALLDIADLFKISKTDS", "test": "Inhibition of CPT1 in rat cardiac mitochondria using [3H]carnitine by radiometric method"}, "[4]": {"target": "T3, Carnitine O-palmitoyltransferase 2, mitochondrial (Rattus norvegicus, UniProt P18886)", "T3 sequence (P18886 whole entry)": "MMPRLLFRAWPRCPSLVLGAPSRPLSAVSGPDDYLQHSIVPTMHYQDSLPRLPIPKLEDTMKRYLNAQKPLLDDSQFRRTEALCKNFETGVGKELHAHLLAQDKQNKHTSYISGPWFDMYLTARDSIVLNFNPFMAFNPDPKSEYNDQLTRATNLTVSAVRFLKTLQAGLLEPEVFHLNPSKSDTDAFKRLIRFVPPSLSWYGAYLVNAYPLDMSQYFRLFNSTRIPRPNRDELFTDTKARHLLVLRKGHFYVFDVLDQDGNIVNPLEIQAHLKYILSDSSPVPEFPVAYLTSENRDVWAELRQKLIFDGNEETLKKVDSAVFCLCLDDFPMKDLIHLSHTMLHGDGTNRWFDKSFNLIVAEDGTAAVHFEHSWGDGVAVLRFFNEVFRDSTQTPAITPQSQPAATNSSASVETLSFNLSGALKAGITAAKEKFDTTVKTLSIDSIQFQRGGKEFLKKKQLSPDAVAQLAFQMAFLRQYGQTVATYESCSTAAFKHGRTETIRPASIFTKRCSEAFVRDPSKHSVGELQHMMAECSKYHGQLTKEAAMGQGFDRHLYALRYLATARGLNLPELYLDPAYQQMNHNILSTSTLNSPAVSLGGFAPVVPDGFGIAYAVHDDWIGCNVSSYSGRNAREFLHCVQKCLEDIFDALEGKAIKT", "test": "Inhibition of CPT2 in rat mitochondria using [3H]carnitine by radiometric method"}, "[5]": {"target": "T4, Carnitine O-palmitoyltransferase 2, mitochondrial (Homo sapiens, UniProt P23786)", "T4 sequence (P23786 whole entry)": "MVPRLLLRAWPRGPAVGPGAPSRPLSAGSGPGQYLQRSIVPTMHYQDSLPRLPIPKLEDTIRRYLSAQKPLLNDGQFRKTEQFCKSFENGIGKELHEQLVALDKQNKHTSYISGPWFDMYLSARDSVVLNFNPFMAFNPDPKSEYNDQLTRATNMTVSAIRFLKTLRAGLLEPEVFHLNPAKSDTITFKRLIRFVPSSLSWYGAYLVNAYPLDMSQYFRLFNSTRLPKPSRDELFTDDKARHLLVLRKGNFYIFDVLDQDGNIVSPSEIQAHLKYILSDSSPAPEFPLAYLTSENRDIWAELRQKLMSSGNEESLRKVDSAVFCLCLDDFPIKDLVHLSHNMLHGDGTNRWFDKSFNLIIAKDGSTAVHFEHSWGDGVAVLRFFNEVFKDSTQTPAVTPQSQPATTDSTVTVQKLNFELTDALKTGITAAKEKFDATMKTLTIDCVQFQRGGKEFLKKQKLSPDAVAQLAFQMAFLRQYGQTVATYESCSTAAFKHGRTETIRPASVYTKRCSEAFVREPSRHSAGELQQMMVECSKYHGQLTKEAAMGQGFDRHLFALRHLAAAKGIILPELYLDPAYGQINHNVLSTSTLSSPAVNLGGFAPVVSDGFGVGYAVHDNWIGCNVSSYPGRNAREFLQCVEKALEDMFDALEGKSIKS", "test": "Inhibition of human CPT2"}, "[6]": {"test": "Inhibition of human FAO"}, "[7]": {"target": "T5, Carnitine O-palmitoyltransferase 1, liver isoform (Rattus norvegicus, UniProt P32198)", "T5 sequence (P32198 whole entry)": "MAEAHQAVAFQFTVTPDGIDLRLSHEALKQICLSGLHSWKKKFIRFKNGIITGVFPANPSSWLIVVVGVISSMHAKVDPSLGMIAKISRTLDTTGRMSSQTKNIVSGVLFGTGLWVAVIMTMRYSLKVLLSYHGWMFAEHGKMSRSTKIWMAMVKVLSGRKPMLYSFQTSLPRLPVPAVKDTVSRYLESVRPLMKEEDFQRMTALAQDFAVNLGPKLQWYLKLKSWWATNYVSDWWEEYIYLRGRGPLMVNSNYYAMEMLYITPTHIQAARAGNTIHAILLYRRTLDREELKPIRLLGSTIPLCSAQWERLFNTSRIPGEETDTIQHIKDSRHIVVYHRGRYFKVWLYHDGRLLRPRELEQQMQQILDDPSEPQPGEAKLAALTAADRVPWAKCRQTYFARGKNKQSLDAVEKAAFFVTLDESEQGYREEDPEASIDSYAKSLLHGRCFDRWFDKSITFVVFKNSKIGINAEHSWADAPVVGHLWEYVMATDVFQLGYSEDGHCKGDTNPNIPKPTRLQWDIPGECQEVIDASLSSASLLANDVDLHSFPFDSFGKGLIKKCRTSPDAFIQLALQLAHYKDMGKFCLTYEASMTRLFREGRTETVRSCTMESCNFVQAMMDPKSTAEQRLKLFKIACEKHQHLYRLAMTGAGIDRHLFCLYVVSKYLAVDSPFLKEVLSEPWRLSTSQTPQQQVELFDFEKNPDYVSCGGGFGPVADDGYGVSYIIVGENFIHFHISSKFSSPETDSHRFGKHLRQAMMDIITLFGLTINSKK", "test": "Inhibition of CPT1 in rat liver mitochondria using [3H]carnitine by radiometric method"}, "[8]": {"test": "Inhibition of rat FAO"}, "[9]": {"target": "T3, Carnitine O-palmitoyltransferase 2, mitochondrial", "test": "Inhibition of rat CPT2"}, "[10]": {"target": "T2, Carnitine O-palmitoyltransferase 1, muscle isoform", "test": "Inhibition of CPT1B in liver mitochondria"}, "[11]": {"target": "T2, Carnitine O-palmitoyltransferase 1, muscle isoform", "test": "Inhibition of CPT1B in heart mitochondria"}, "[12]": {"target": "T5, Carnitine O-palmitoyltransferase 1, liver isoform", "test": "Inhibition of rat CPT1 in rat mitochondria"}, "[13]": {"target": "T3, Carnitine O-palmitoyltransferase 2, mitochondrial", "test": "Inhibition of rat CPT2 in rat mitochondria"}, "[14]": {"test": "Inhibition of carnitine palmitoyltransferase in 18 hr fasted rat liver homogenates", "assay_type": "tissue-based"}, "[15]": {"test": "Inhibition of FAO"}, "[16]": {"test": "Inhibition of carnitine palmitoyltransferase in 18 hr fasted rat hepatocytes", "assay_type": "cell-based", "settings": "hepatocyte"}, "[17]": {"target": "Carnitine O-palmitoyltransferase 1, muscle isoform (Rattus norvegicus, UniProt Q63704)", "sequence (Q63704 whole entry, canonical isoform)": "as the sequence (Q63704 whole entry, looked up, canonical isoform) above", "test": "Inhibition of […] in rat myocardium", "assay_type": "tissue-based"}}}
{"molecule": "C1CCC(C(CC2CCCCN2)C2CCCCC2)CC1", "note": "(configuration not stated) [PERHEXILINE]", "values": [{"measurement": "IC50", "setting": "[1]", "result": "> 100", "unit": "µM"}, {"measurement": "IC50", "setting": "[2]", "result": "> 100", "unit": "µM"}, {"measurement": "IC50", "setting": "[3]", "result": 77, "unit": "µM"}, {"measurement": "IC50", "setting": "[4]", "result": 79, "unit": "µM"}, {"measurement": "IC50", "setting": "[5]", "result": 72.8, "unit": "µM"}, {"measurement": "IC50", "setting": "[6]", "result": 22.4, "unit": "µM"}, {"measurement": "IC50", "setting": "[7]", "result": 148, "unit": "µM"}, {"measurement": "IC50", "setting": "[8]", "result": 21.4, "unit": "µM"}]}
{"molecule": "O=C(O)C(=O)c1ccc(O)cc1", "values": [{"measurement": "IC50", "setting": "[1]", "result": "> 100", "unit": "µM"}, {"measurement": "IC50", "setting": "[2]", "result": 60.3, "unit": "µM"}, {"measurement": "IC50", "setting": "[9]", "result": "> 100", "unit": "µM"}, {"measurement": "IC50", "setting": "[10]", "result": 510, "unit": "µM"}, {"measurement": "IC50", "setting": "[5]", "result": "> 100", "unit": "µM"}, {"measurement": "IC50", "setting": "[6]", "result": 33.3, "unit": "µM"}, {"measurement": "IC50", "setting": "[11]", "result": 11, "unit": "µM"}, {"measurement": "IC50", "setting": "[8]", "result": "> 100", "unit": "µM"}]}
{"molecule": "COc1cccc2c1C(=O)c1c(O)c3c(c(O)c1C2=O)C[C@@](O)(C(=O)CO)C[C@@H]3O[C@H]1C[C@H](N)[C@H](O)[C@H](C)O1", "note": "[DOXORUBICIN]", "values": [{"measurement": "IC50", "setting": "[12]", "result": 250, "unit": "µM"}, {"measurement": "IC50", "setting": "[13]", "result": "> 100", "unit": "µM"}]}
{"molecule": "CCCCCCCCCCCCCCCC(=O)N[C@H](CC(=O)[O-])C[N+](C)(C)C", "note": "[PALMITOYLAMINOCARNITINE]", "values": [{"measurement": "IC50", "setting": "[1]", "result": 2.67, "unit": "µM"}, {"measurement": "IC50", "setting": "[14]", "result": 1.3, "unit": "µM"}, {"measurement": "IC50", "setting": "[2]", "result": 21.7, "unit": "µM"}, {"measurement": "IC50", "setting": "[5]", "result": 0.14, "unit": "µM"}, {"measurement": "IC50", "setting": "[6]", "result": 2.8, "unit": "µM"}, {"measurement": "IC50", "setting": "[8]", "result": 0.27, "unit": "µM"}, {"measurement": "IC50", "setting": "[15]", "result": 0.05, "unit": "µM"}, {"measurement": "IC50", "setting": "[16]", "result": 1.2, "unit": "µM"}]}
{"molecule": "COc1ccc(CN2CCNCC2)c(OC)c1OC", "note": "[TRIMETAZIDINE]", "values": [{"measurement": "IC50", "setting": "[1]", "result": "> 100", "unit": "µM"}, {"measurement": "IC50", "setting": "[2]", "result": "> 100", "unit": "µM"}, {"measurement": "IC50", "setting": "[5]", "result": "> 100", "unit": "µM"}, {"measurement": "IC50", "setting": "[17]", "result": 1.3, "unit": "µM"}, {"measurement": "IC50", "setting": "[6]", "result": 20.5, "unit": "µM"}, {"measurement": "IC50", "setting": "[8]", "result": "> 100", "unit": "µM"}]}
